Assay results reported in US20200399238A1, “THERAPEUTIC AURONES” (MIDDLE TENNESSEE STATE UNIVERSITY, priority 2016, published 2020).

Legend:
S. cerevisiae = assay: Antifungal microdilution broth assay, S. cerevisiae; assay type: cell-based; details: Saccharomyces cerevisiae; Table 5
Excerpt: A microdilution broth method (CLSI, Reference Method for Broth Dilution Antifungal Susceptibility Testing of Yeasts, Approved Standard-Third Edition, Clinical Laboratory Standards Institute, Wayne, Pa., 2008) was followed with some modifications for the testing of potential antifungal compounds Corning CellGro RPMI 1640 with glutamine, without bicarbonate buffer, with phenol red (RPMI; Sigma-Aldrich) was used as the base medium for testing. A 1 M solution of morpholinepropanesulfonic acid (MOPS; Sigma-Aldrich) was added to the RPMI to a final concentration of 0.165 M for buffering (RPMI-MOPS). This medium was adjusted to a pH of 7.0 with 10 M NaOH and filter sterilized.
PrestoBlue® (Life Technologies, Invitrogen, Carlsbad, Calif.), a resazurin-based cell viability reagent that, in metabolically active cells, is reduced from blue, non-fluorescent resazurin, to red, fluorescent resorufin, was used to assess inhibition of yeast growth by the aurones. Reduction of the compound from resazurin to resorufin is proportional to the number of metabolically active cells and can be quantified by measuring relative fluorescence units (RFUs). […]
IC50 determination was calculated using GraphPad Prism version 7.01 for Windows (GraphPad Software, Inc., La Jolla, Calif.) from the RFUs at dilution points. […]

[1] = system: Leishmania amazonensis promastigotes expressing beta-lactamase; assay: microbe, parasite or virus in culture; assay type: cell-based; details: Leishmania amazonensis, read-out: IC50 L. amaz.
[2] = system: C. tropicalis (ATCC strain 750); assay: Antifungal microdilution broth assay (PrestoBlue), C. tropicalis; assay type: cell-based; details: Candida tropicalis, ATCC750; Table 5
Protocol: Sigma-Aldrich) was used as the base medium for testing. […] solution of morpholinepropanesulfonic acid (MOPS; Sigma-Aldrich) was added to the RPMI to a final concentration of 0.165 M for buffering (RPMI-MOPS). This medium was adjusted to a pH of 7.0 with 10 M NaOH and filter sterilized. C. albicans (ATCC strain 90028), C. [NT] strain 66032), and C. tropicalis (ATCC strain 750) were cultured on potato dextrose agar (Sigma-Aldrich) plates, and incubated at 35° C. for 24 hours. For antifungal testing, overnight colonies were adjusted to 1.5×10^3 cells/mL, hereafter referred to as the test inoculum. […] Reduction of the compound from resazurin to resorufin is proportional to the number of metabolically active cells and can be quantified by measuring relative fluorescence units (RFUs). […] PrestoBlue was added to a final concentration of 10% in each well and fluorescence read at 560 nm excitation and 590 nm emission, per manufacturer instructions, using a SpectraMax M2e spectrophotometer (Molecular Devices, LLC, Sunnyvale, Calif.). […] The calculated Z', as described below, was compared to RFU readings and the optimal PrestoBlue incubation time was determined to be 75 minutes. IC50 determination was calculated using GraphPad Prism version 7.01 for Windows (GraphPad Software, Inc., La Jolla, Calif.) from the RFUs at dilution points. […]

SMILES: COc1ccc(/C=C2\Oc3c(ccc(O)c3O)C2=O)cc1O [Aurone 1009, (Z)-6,7-dihydroxy-2-(3-hydroxy-4-methoxybenzylidene)benzofuran-3(2H)-one]
- IC50 (S. cerevisiae): 26 µM
- IC50 [1]: 9.63 µM
- IC50 [2]: 10 µM
- melting point: 275 to 280 °C
